Source: ChEMBL document CHEMBL4385602, “Stereoselective synthesis and biological evaluation as inhibitors of hepatitis C virus RNA polymerase of GSK3082 analogues with structural diversity at the 5-position” (Eur J Med Chem, 2019)

Experiments:
[1] = target: RNA-directed RNA polymerase (Hepacivirus hominis) (UniProt O39930); assay: Inhibition of NS5B RNA dependent RNA polymerase in HCV 1b Con1 infected in human Huh5-2 cells assessed as reduction in viral RNA replication measured after 3 days by luciferase reporter gene assay; format: cell-based; settings: Hepatitis C virus subtype 1b
RNA-directed RNA polymerase (Hepacivirus hominis), sequence (O39930 1-591): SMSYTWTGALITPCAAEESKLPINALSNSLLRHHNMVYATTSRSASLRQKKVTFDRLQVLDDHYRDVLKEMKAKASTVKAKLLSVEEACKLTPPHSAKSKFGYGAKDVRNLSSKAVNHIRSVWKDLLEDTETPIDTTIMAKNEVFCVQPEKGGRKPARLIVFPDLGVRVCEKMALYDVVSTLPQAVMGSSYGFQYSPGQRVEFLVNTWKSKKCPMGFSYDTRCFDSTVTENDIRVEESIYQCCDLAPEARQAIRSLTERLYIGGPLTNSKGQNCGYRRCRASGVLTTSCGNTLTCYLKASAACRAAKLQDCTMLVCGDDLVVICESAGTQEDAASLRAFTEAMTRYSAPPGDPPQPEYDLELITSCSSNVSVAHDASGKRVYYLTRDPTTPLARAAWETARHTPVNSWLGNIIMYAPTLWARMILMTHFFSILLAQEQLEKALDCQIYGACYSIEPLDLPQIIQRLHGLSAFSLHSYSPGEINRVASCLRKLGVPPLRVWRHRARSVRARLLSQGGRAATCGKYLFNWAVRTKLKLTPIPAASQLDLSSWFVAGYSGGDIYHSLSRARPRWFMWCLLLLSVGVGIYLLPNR

[2] = Cytotoxicity against human Huh5-2 cells assessed as reduction in cell viability measured after 3 days by CellTiter 96 AQueous One Solution Cell Proliferation assay; format: cell-based, Huh-5-2

COC[C@H]1C[C@@](CC(C)C)(C(=O)O)N(C(=O)c2ccc(C(C)(C)C)c(OC)c2)[C@@H]1c1nccs1
inhibition [1]: Dose-dependent effect
CC50 at 72 h [2]: 200 µM

COC[C@H]1C[C@@](CC(C)C)(C(=O)O)N(C(=O)c2ccc(C(C)(C)C)c(OC)c2)[C@H]1CN=[N+]=[N-]
inhibition [1]: Dose-dependent effect
CC50 at 72 h [2]: > 120 µM

CCOC(=O)c1csc([C@H]2[C@@H](COC)C[C@@](CC(C)C)(C(=O)O)N2C(=O)c2ccc(C(C)(C)C)c(OC)c2)n1
inhibition [1]: Dose-dependent effect
CC50 at 72 h [2]: 200 µM

COC[C@H]1C[C@@](CC(C)C)(C(=O)O)N(C(=O)c2ccc(C(C)(C)C)c(OC)c2)[C@H]1C(=O)OC
inhibition [1]: Dose-dependent effect
CC50 at 72 h [2]: > 120 µM

COC[C@H]1C[C@@](CC(C)C)(C(=O)O)N(C(=O)c2ccc(C(C)(C)C)c(OC)c2)[C@H]1[C@H]1COC(=O)O1
inhibition [1]: Dose-dependent effect
CC50 at 72 h [2]: > 120 µM

COC[C@H]1C[C@@](CC(C)C)(C(=O)O)N(C(=O)c2ccc(C(C)(C)C)c(OC)c2)[C@H]1CF
inhibition [1]: Dose-dependent effect
CC50 at 72 h [2]: > 120 µM

COC[C@H]1C[C@@](CC(C)C)(C(=O)O)N(C(=O)c2ccc(C(C)(C)C)c(OC)c2)[C@H]1COC
inhibition [1]: Dose-dependent effect
CC50 at 72 h [2]: > 120 µM

COC[C@H]1C[C@@](CC(C)C)(C(=O)O)N(C(=O)c2ccc(C(C)(C)C)c(OC)c2)[C@H]1c1nccs1
inhibition [1]: Dose-dependent effect
CC50 at 72 h [2]: > 120 µM

COC[C@H]1C[C@@](CC(C)C)(C(=O)O)N(C(=O)c2ccc(C(C)(C)C)c(OC)c2)[C@H]1[C@H]1COC(C)(C)O1
inhibition [1]: Dose-dependent effect
CC50 at 72 h [2]: > 120 µM

C=CCOC[C@H]1[C@@H](COC)C[C@@](CC(C)C)(C(=O)O)N1C(=O)c1ccc(C(C)(C)C)c(OC)c1
inhibition [1]: Dose-dependent effect
CC50 at 72 h [2]: > 120 µM

COC[C@H]1C[C@@](CC(C)C)(C(=O)O)N(C(=O)c2ccc(C(C)(C)C)c(OC)c2)[C@H]1CNC(C)=O
inhibition [1]: Dose-dependent effect
CC50 at 72 h [2]: > 120 µM

CC[C@H]1[C@@H](COC)C[C@@](CC(C)C)(C(=O)O)N1C(=O)c1ccc(C(C)(C)C)c(OC)c1
inhibition [1]: Dose-dependent effect
CC50 at 72 h [2]: 200 µM

COC[C@H]1C[C@@](CC(C)C)(C(=O)O)N(C(=O)c2ccc(C(C)(C)C)c(OC)c2)[C@H]1COC(=O)OC
inhibition [1]: Dose-dependent effect
CC50 at 72 h [2]: > 120 µM

COC[C@H]1C[C@@](CC(C)C)(C(=O)O)N(C(=O)c2ccc(C(C)(C)C)c(OC)c2)[C@H]1C(N)=O
inhibition [1]: Dose-dependent effect
CC50 at 72 h [2]: > 120 µM

COC[C@H]1C[C@@](CC(C)C)(C(=O)O)N(C(=O)c2ccc(C(C)(C)C)c(OC)c2)[C@H]1COC(C)=O
inhibition [1]: Dose-dependent effect
CC50 at 72 h [2]: > 120 µM
